Earlier results in patent US5070187A, “Pharmacologically effective antagonists of arginine-vasopressin” (priority 1989, dated 1991).

Conditions: in vivo

## [8-arginine]-vasopressin
  urinary clearance relative to that occurring elsewhere in the body: less than 5%
